In patent US20260083865A1, “PROSTATE SPECIFIC MEMBRANE ANTIGEN (PSMA) LIGANDS AND USE THEREOF” (priority 2022, published 2026):
Numbered stars: 1 amine (or outer) side, 2 acyl side, 3 side chain; on linkers, the order of the positions; unused ones are H or OH. Bridge positions count the residues as written; N and C are the ends. Square brackets hold non-standard residues; d marks the D form. Peptide text beside a SMILES is read from it. * marks the point of attachment. DOTA = O=C(O)CN1CCN(CC(=O)O)CCN(CC(=O)*)CCN(CC(=O)O)CC1; Phe(4-Cl) = N[C@@H](Cc1ccc(Cl)cc1)C(=O)O; hArg = N=C(N)NCCCC[C@H](N)C(=O)O; X1 = O=C(CC1CCN([*:1])CC1)[*:2]; d(αMeS) = C[C@@](N)(CO)C(=O)O; Tle = CC(C)(C)[C@H](N)C(=O)O; 4Abz = Nc1ccc(C(=O)O)cc1; Nle = CCCC[C@H](N)C(=O)O; Aib = CC(C)(N)C(=O)O; Ahx = NCCCCCC(=O)O; GABA = NCCCC(=O)O

Legend:
[1] = target: T1, PSMA-expressing C4-2 cells (Homo sapiens, UniProt Q04609); assay: FACS binding assay (competition with 50 nM PSM-0183); settings: FACS binding, PSMA-expressing C4-2 cells, pIC50 category; for IC50: read-out: pIC50 [C4-2] CAT (converted)
T1 construct: PSMA-expressing C4-2 cells (ATCC, Cat. No. CRL-3314) were cultured in RPMI-1640; host or cells: C4-2 cells
Summary of the method: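 C4-2 cells were incubated 1 h at 4 °C with 50 nM AF488-labelled peptide PSM-0183 plus increasing test compound concentrations, then washed twice in ice-cold buffer. Median fluorescence in the AF488 channel was read by flow cytometry. IC50/pIC50 was derived by 4PL fitting of MFI versus concentration.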

[2] = target: T2, Fc-fusion protein of human PSMA (hPSMA-Fc) (Homo sapiens, UniProt Q04609); assay: Surface plasmon resonance assay (Biacore T200, single cycle kinetic); format: binding; settings: PSMA SPR assay, hPSMA-Fc, 25° C.; pKD category; read-out: pKD CAT (converted)
T2 construct: purchased Acro Biosystems PSA-H5264
Summary of the method: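 hPSMA-Fc was captured (~1000 RU) on an Fc-binding-peptide CM5 chip, and compounds were run in single cycle kinetic mode at 25° C in HBST with 0.1% DMSO. Double-blank-corrected sensorgrams were fitted to a 1:1 Langmuir model to give KD, reported as pKD.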

T1 sequence (Q04609 whole entry): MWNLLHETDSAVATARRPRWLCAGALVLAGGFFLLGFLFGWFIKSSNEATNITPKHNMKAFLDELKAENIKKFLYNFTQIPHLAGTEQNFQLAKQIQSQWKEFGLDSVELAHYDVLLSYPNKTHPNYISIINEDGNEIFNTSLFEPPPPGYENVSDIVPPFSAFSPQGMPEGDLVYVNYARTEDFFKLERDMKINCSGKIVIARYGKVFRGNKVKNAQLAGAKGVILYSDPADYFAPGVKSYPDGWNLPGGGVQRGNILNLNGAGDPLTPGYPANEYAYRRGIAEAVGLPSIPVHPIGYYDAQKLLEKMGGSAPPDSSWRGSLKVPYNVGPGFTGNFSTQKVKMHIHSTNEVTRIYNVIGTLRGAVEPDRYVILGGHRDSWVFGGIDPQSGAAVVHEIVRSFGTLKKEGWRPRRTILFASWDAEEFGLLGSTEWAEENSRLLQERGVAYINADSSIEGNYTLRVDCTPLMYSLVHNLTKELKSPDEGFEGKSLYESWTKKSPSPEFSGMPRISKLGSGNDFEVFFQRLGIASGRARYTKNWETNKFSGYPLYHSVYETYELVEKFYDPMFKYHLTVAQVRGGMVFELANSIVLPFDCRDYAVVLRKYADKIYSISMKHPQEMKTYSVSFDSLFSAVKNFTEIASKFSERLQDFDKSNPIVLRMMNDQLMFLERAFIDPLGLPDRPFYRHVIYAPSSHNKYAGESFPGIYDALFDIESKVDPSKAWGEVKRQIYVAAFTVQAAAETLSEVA
T2 sequence (Q04609 44-750 limits assumed): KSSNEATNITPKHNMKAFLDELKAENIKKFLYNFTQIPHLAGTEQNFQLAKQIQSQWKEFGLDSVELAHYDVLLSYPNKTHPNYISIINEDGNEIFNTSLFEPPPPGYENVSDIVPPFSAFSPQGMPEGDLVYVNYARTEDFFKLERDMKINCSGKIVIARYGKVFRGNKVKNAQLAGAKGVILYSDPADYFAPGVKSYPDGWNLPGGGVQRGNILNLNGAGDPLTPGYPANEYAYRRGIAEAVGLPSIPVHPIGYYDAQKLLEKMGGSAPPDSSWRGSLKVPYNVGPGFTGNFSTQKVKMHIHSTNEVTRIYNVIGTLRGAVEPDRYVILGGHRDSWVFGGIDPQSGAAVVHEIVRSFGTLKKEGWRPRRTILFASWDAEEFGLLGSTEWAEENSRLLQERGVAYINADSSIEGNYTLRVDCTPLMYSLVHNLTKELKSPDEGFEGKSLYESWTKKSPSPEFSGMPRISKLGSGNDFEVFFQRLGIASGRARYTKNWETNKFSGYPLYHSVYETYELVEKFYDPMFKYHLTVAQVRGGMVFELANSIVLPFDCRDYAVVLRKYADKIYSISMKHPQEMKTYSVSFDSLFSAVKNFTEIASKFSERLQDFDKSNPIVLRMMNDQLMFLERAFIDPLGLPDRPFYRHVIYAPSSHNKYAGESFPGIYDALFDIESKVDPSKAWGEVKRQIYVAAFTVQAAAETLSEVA

Row | IC50 [1] | Kd [2] | pIC50 [C4-2] CAT [1] | SMILES
1 | < 200 nM | < 12.6 nM |  | C[C@@H](O)[C@H](NC(=O)[C@@H](NC(=O)[C@@H]1CSSC[C@H](NC(=O)[C@H](Cc2ccc(Cl)cc2)NC(=O)C(C)(C)NC(=O)CCCCCNC(=O)CN2CCN(CC(=O)O)CCN(CC(=O)O)CCN(CC(=O)O)CC2)C(=O)N[C@@H](CCCCN)C(=O)N[C@@H](CCCNC(=N)N)C(=O)NC(C)(C)C(=O)N[C@@H](CC(N)=O)C(=O)N1)C(C)(C)C)C(N)=O [PSM-0310, DOTA-Ahx-Aib-Pcf-[Cys-Lys-Arg-Aib-Asn-Cys]-Tle-Thr-NH2] ({DOTA-Ahx}-[Aib][Phe(4-Cl)]CKR[Aib]NC[Tle]T-NH2; disulfide 3-8)
2 | 200 to 1260 nM | 126 to 501 nM |  | CCCC[C@H](NC(=O)[C@@H]1CSSC[C@H](NC(=O)[C@H](Cc2ccccc2)NC(=O)[C@H](C)NC(=O)[C@@H](NC(C)=O)[C@@H](C)O)C(=O)N[C@@H](CCCCN)C(=O)N[C@@H](CCCNC(=N)N)C(=O)N[C@@H](C)C(=O)N[C@@H](CC(N)=O)C(=O)N1)C(=O)N[C@H](C(=O)NCCCC(=O)O)[C@@H](C)O [PSM-0313, Ac-Thr-Ala-Phe-[Cys-Lys-Arg-Ala-Asn-Cys]-Nle-Thr-Gab-OH] (Ac-TAFCKRANC[Nle]T[GABA]-OH; disulfide 4-9)
3 | < 200 nM | < 12.6 nM |  | C[C@@H](O)[C@H](NC(=O)[C@@H](NC(=O)[C@@H]1CSSC[C@H](NC(=O)[C@H](Cc2ccc(Cl)cc2)NC(=O)C(C)(C)NC(=O)[C@@H](NC(=O)CC2CCN(C(=O)CN3CCN(CC(=O)O)CCN(CC(=O)O)CCN(CC(=O)O)CC3)CC2)[C@@H](C)O)C(=O)N[C@@H](CCCCN)C(=O)N[C@@H](CCCNC(=N)N)C(=O)N[C@](C)(CO)C(=O)N[C@@H](CC(N)=O)C(=O)N1)C(C)(C)C)C(N)=O [PSM-0314, DOTA-Cmp-Thr-Aib-Pcf-[Cys-Lys-Arg-ams-Asn-Cys]-Tle-Thr-NH2] ({DOTA}-[X1]T[Aib][Phe(4-Cl)]CKR[d(αMeS)]NC[Tle]T-NH2; disulfide 5-10)
4 |  | 12.6 to 126 nM | A (pIC50 values >6.7) | CC(=O)N[C@H](C(=O)NC(C)(C)C(=O)N[C@@H](Cc1ccccc1)C(=O)N[C@H]1CSSC[C@@H](C(=O)N[C@H](C(=O)N[C@H](C(=O)N[C@@H](CC(=O)O)C(N)=O)[C@@H](C)O)C(C)(C)C)NC(=O)[C@H](CC(N)=O)NC(=O)[C@H](C)NC(=O)[C@H](CCCNC(=N)N)NC(=O)[C@H](CCCCN)NC1=O)[C@@H](C)O [PSM-0315, Ac-Thr-Aib-Phe-[Cys-Lys-arg-Als-Asn-Cys]-Tle-Thr-Asp-NH2] (Ac-T[Aib]FCKRANC[Tle]TD-NH2; disulfide 4-9)
5 | < 200 nM | < 12.6 nM |  | C[C@@H](O)[C@H](NC(=O)[C@@H](NC(=O)[C@@H]1CSSC[C@H](NC(=O)[C@H](Cc2ccc(Cl)cc2)NC(=O)C(C)(C)NC(=O)[C@@H](NC(=O)CC2CCN(C(=O)CN3CCN(CC(=O)O)CCN(CC(=O)O)CCN(CC(=O)O)CC3)CC2)[C@@H](C)O)C(=O)N[C@@H](CCCCN)C(=O)N[C@@H](CCCCNC(=N)N)C(=O)NC(C)(C)C(=O)N[C@@H](CC(N)=O)C(=O)N1)C(C)(C)C)C(N)=O [PSM-0317, DOTA-Cmp-Thr-Aib-Pcf-[Cys-Lys-Har-Aib-Asn-Cys]-Tle-Thr-NH2] ({DOTA}-[X1]T[Aib][Phe(4-Cl)]CK[hArg][Aib]NC[Tle]T-NH2; disulfide 5-10)

Row | SMILES | IC50 [1] | Kd [2] | pIC50 [C4-2] CAT [1]
6 | C[C@@H](O)[C@H](NC(=O)[C@@H](NC(=O)[C@@H]1CSSC[C@H](NC(=O)[C@H](Cc2ccccc2)NC(=O)C(C)(C)NC(=O)c2ccc(NC(=O)CN3CCN(CC(=O)O)CCN(CC(=O)O)CCN(CC(=O)O)CC3)cc2)C(=O)N[C@@H](CCCCN)C(=O)N[C@@H](CCCNC(=N)N)C(=O)NC(C)(C)C(=O)N[C@@H](CC(N)=O)C(=O)N1)C(C)(C)C)C(N)=O [PSM-0316, DOTA-Pab-Aib-Phe-[Cys-Lys-Arg-Aib-Asn-Cys]-Tle-Thr-NH2] ({DOTA-4Abz}-[Aib]FCKR[Aib]NC[Tle]T-NH2; disulfide 3-8) | < 200 nM | < 12.6 nM | 
